Laboratory results reported in patent US20080293647A1, “Combined Use Of Vitamin D Derivatives And Anti-Proliferative Agents For Treating Bladder Cancer” (priority 2004, published 2008).
Values joined by “and” are separate entries in the source; they are usually repeats but may differ in a detail not shown here. Equal entries are not always repeated. Where two headings read alike, the source gives them in different places.

Assays:
[1] = tested on: RT112; assay: Inhibition of cell proliferation, RT112 human bladder cancer cells (CyQuant); format: cell-based; conditions: read-out: Bladder Cancer Cell Lines IC50 (μM) RT112
Procedure: (§1) After an additional 96-h culture, the medium was removed and the plates frozen at −80° C. Cell proliferation was evaluated using CyQuant cell proliferation assay kit from Molecular Probes (Eugene, Oreg.).

[2] = tested on: RT4; assay: Inhibition of cell proliferation, RT4 human bladder cancer cells (CyQuant); format: cell-based; conditions: read-out: Bladder Cancer Cell Lines IC50 (μM) RT4
Procedure: as §1

[3] = tested on: human bladder cancer cell lines; assay: Combination of calcitriol with chemotherapeutic agents, bladder cancer cell line proliferation, combination index method; format: cell-based; conditions: agent combined with calcitriol; combination index method (CalcuSyn)
Procedure: Proliferation was measured after an additional 96 h using CyQuant cell proliferation assay kit. Drug interactions (as shown in FIG. 1) were evaluated by the median-effect/isobologram method using CalcuSyn software (Biosoft, Cambridge, UK). Combination Indices (CI) were calculated using the non-constant ratio combination design, determining synergism or antagonism for each data point.

[4] = tested on: T24; assay: Inhibition of cell proliferation, T24 human bladder cancer cells (CyQuant); format: cell-based; conditions: read-out: Bladder Cancer Cell Lines IC50 (μM) T24
Procedure: as §1

[5] = Stability/compatibility of epirubicin and calcitriol solution for intravesical instillation (HPLC-UV); format: physicochemical
Procedure: Approximately 12 mg of freeze-dried Farimorubicina® powder (approx. 2 mg of epirubicin) were dissolved in water to produce a concentrated stock solution. After vortexing, the concentrated stock was diluted 1:2 using a isotonic saline containing Tween 20 at 0.1% (w/v) to provide Sample B. After further vortexing, Sample B was stored at 4° C. until use. […] The solution was mixed and stored at −20° C. until use. 100 μl of the concentrated stock solution was then taken and diluted with 900 μl of isotonic saline containing Tween 20 0.1% (w/v). After shaking the sample was stored at 4° C. until use. […] Following mixing by vortexing, the sample was stored at 5° C. and analysed using HPLC chromatography after preparation (t=0) and after 2.5 hr (t=150 min). [table]

[6] = tested on: 24-hydroxylase (CYP24); assay: Expression of 24-hydroxylase (CYP24) in human bladder cancer cell lines, Real Time RT-PCR; format: cell-based; conditions: 100 nM, 2 h
[7] = Homo sapiens, RT-112, 96 h, 96-h culture
[8] = Homo sapiens, RT-4, 96 h, 96-h culture
[9] = Homo sapiens, T-24, 96-h culture
[10] = combination (calcitriol 50 μg/ml + epirubicin 1 mg/ml), t = 0 min
[11] = combination (calcitriol 50 μg/ml + epirubicin 1 mg/ml), t = 150 min, stored at 5° C.
[12] = single-component solution (epirubicin 1 mg/ml; calcitriol 100 μg/ml), HPLC peak area

With C=C1/C(=C\C=C2/CCC[C@]3(C)C(C4(C/C=C/C(O)(C(F)(F)F)C(F)(F)F)CC4)=CCC23)CC(O)C[C@@H]1F (stereo partly drawn) [1α-Fluoro-25-hydroxy-16,23E-diene-20-cyclopropyl-26,27-hexafluoro-cholecalciferol] as the compound, how does the IC50 ([1]; 96-h culture) read?
The IC50 was 17 µM.

What about the IC50 ([2]; 96-h culture) of the same compound?
Its IC50 is 3.6 µM.

With C=C1/C(=C\C=C2/CCC[C@]3(C)C(C4(CC#CC(O)(C(F)(F)F)C(F)(F)F)CC4)=CCC23)CC(O)C[C@@H]1F (stereo partly drawn) [1α-Fluoro-25-hydroxy-16-ene-20-cyclopropyl-23-yne-26,27-hexafluoro-cholecalciferol] as the compound, how does the IC50 ([1]; 96-h culture) read?
Its IC50 is 16.9 µM.

And the IC50 ([2]; 96-h culture)?
The IC50 was 3.6 µM.

What does the source list for CC(C)(O)CCCC1(C2=CCC3/C(=C/C=C4/CC(O)C[C@H](O)C4)CCC[C@]23C)CC1 (stereo partly drawn) [1α,25-Dihydroxy-16-ene-20-cyclopropyl-19-nor-cholecalciferol]?
IC50 [1, 7]: > 30 µM; IC50 [2, 8]: 9.9 µM

For Nc1ccn([C@@H]2O[C@H](CO)[C@@H](O)C2(F)F)c(=O)n1 [gemcitabine], which “Synergism or antagonism on bladder cancer cell proliferation in combination with calcitriol” value (from here on “Synergism or antagonism … with calcitriol”) [3] is on record?
The value was “strong antagonistic effect”.

Which results are given for C=C1/C(=C\C=C2/CCC[C@]3(C)C(C4(C/C=C\C(O)(C(F)(F)F)C(F)(F)F)CC4)=CCC23)CC(O)C[C@@H]1F (stereo partly drawn) [1α-Fluoro-25-hydroxy-16,23Z-diene-20-cyclopropyl-26,27-hexafluoro-cholecalciferol]?
IC50 ([1]; 96-h culture): 21 µM; IC50 ([2]; 96-h culture): 3.1 µM

Which results are given for CC(C)(O)CCC[C@@H](CCC(=O)C(C)(C)O)[C@H]1CC[C@H]2/C(=C/C=C3C[C@@H](O)C[C@H](O)C3)CCC[C@]12C [1,25-dihydroxy-20S-21(3-hydroxy-3-methyl-butyl)-24-keto-19-nor-cholecalciferol]?
IC50 [1, 7]: > 30 µM; IC50 [2, 8]: 2.6 µM

What does the source list for C=C1/C(=C\C=C2/CCC[C@]3(C)C(C4(CCCC(C)(C)O)CC4)=CCC23)CC(O)C[C@@H]1O (stereo partly drawn) [1α,25-Dihydroxy-16-ene-20-cyclopropyl-cholecalciferol]?
IC50 [1, 7]: 27.6 µM; IC50 [2, 8]: 2 µM

For C[C@]12CCC/C(=C\C=C3\CC(O)C[C@H](O)C3)C1CC=C2C1(C/C=C\C(O)(C(F)(F)F)C(F)(F)F)CC1 (stereo partly drawn) [1α,25-Dihydroxy-16-ene-20-cyclopropyl-23,24-f-ene-2627-hexafluoro-19-nor-cholecalciferol], which IC50 [1, 7] is on record?
Its IC50 is 9.6 µM.

And the IC50 [2, 8]?
Its IC50 is 2.2 µM.

For “1,25-Dihydroxy-21-16,23Z-diene-26,27-hexafluoro-19-nor-cholecalciferol”, which IC50 ([1]; 96-h culture) is on record?
The IC50 was 24 µM.

And the IC50 ([4]; 96-h culture)?
Its IC50 is 58.7 µM.

What about the IC50 ([2]; 96-h culture) of the same compound?
Its IC50 is 20 µM.

For C=C1/C(=C\C=C2/CCC[C@@]3(C)C2CCC3C2(CCCC(C)(C)O)CC2)CC(OC(C)=O)C[C@@H]1OC(C)=O (stereo partly drawn) [1,3-Di-O-acetyl-1,25-dihydroxy-20-cyclopropyl-cholecalciferol], which IC50 [1, 7] is on record?
The IC50 was 9 µM.

And the IC50 [4, 9]?
Its IC50 is 52.1 µM.

And the IC50 [2, 8]?
Its IC50 is 10 µM.

Which “Area (230 nm)” value [5, 10] does the source give for COc1cccc2c1C(=O)c1c(O)c3c(c(O)c1C2=O)C[C@@](O)(C(=O)CO)C[C@@H]3O[C@H]1C[C@H](N)[C@@H](O)[C@H](C)O1 [epirubicin] here?
The value was 53425733 and 53877070.

And the “Area (254 nm)” value [5, 10]?
The value was 44443024 and 44731107.

What about the “Area (230 nm)” value [5, 11] of the same compound?
The value was 52245312 and 50817806.

What about the “Area (254 nm)” value [5, 11] of the same compound?
Its value is 43984488 and 43221785.

And the “Area (230 nm)” value [5, 12]?
Its value is 30443828 and 30511286 and 30555666.

And the “Area (254 nm)” value [5, 12]?
The value was 23243121 and 23243599 and 23383366.

What about the “Synergism or antagonism … with calcitriol” value [3] of the same compound?
Its value is “strong synergistic effect”.

With C=C1/C(=C\C=C2/CCC[C@]3(C)C(C4(CC#CC(O)(C(F)(F)F)C(F)(F)F)CC4)=CCC23)CC(O)C[C@@H]1O (stereo partly drawn) [1,25-Dihydroxy-16-ene-20-cyclopropyl-23,24-yne-26,27 hexafluoro-cholecalciferol] as the compound, how does the IC50 [1, 7] read?
Its IC50 is 13.8 µM.

And the IC50 [2, 8]?
Its IC50 is 1.7 µM.

For C=C1/C(=C\C=C2/CCC[C@@]3(C)C2CCC3C(CCCC(C)(C)O)CCC(O)C(C)(C)O)C[C@@H](O)C[C@@H]1O (stereo partly drawn) [1,25-Dihydroxy-21-(2R,3-dihydroxy-3-methyl-butyl)-20R-Cholecalciferol], which IC50 [1, 7] is on record?
The IC50 was 25 µM.

And the IC50 [4, 9]?
The IC50 was 57.9 µM.

What about the IC50 [2, 8] of the same compound?
The IC50 was 71 µM.

Which results are given for CC(=O)O[C@@H]1CC(=C/C=C2\CCC[C@]3(C)C([C@H](C)CCC(=O)C(C)(C)O)=CCC23)C[C@@H](OC(C)=O)C1 (stereo partly drawn) [1,3-O-Diacetyl-1,25-Dihydroxy-16-ene-24-Keto-19-nor-Cholecalciferol]?
IC50 [1, 7]: 6 µM; IC50 [4, 9]: 31 µM; IC50 [2, 8]: 17 µM

Which results are given for CC(C)(O)CCC[C@@H](CC[C@@H](O)C(C)(C)O)[C@H]1CC[C@H]2/C(=C/C=C3C[C@@H](O)C[C@H](O)C3)CCC[C@]12C [1,25-Dihydroxy-21-(2R,3-dihydroxy-3-methyl-butyl)-20S-19-nor-cholecalciferol]?
IC50 ([1]; Homo sapiens, RT-112, 96-h culture): 44 µM; IC50 [4, 9]: 99.2 µM; IC50 ([2]; Homo sapiens, RT-4, 96-h culture): 72 µM

For C=C1/C(=C\C=C2/CCC[C@]3(C)C(C4(C/C=C/C(O)(C(F)(F)F)C(F)(F)F)CC4)=CCC23)CC(O)C[C@@H]1O (stereo partly drawn) [1α,25-Dihydroxy-16-ene-20-cyclopropyl-23,24-E-ene-26,27-hexafluoro cholecalciferol], which IC50 [1, 7] is on record?
Its IC50 is 10.6 µM.

And the IC50 [2, 8]?
Its IC50 is 2.3 µM.

Which IC50 [1, 7] does the source give for C[C@]12CCC/C(=C\C=C3\CC(O)C[C@H](O)C3)C1CC=C2C1(CC#CC(O)(C(F)(F)F)C(F)(F)F)CC1 (stereo partly drawn) [14215-Dihydroxy-16-ene-20-cyclopropyl-23,41-yne-26,27-hexafluoro-19-nor-cholecalciferol] here?
The IC50 was 22.7 µM.

And the IC50 [2, 8]?
The IC50 was 5.2 µM.

Which IC50 [1, 7] does the source give for C=C1/C(=C\C=C2/CCC[C@]3(C)C(C4(C/C=C\C(O)(C(F)(F)F)C(F)(F)F)CC4)=CCC23)CC(O)C[C@@H]1O (stereo partly drawn) [1α,25-Dihydroxy-16-ene-20-cyclopropyl-23,24-Z-ene-26,27-hexafluoro-cholecalciferol] here?
Its IC50 is 15.5 µM.

And the IC50 [2, 8]?
The IC50 was 3.3 µM.

For C=C1/C(=C\C=C2/CCC[C@]3(C)C([C@@H](C)C/C=C/C(O)(CC)CC)=CC[C@@H]23)C[C@@H](O)C[C@@H]1F [1-alpha-fluoro-25-hydroxy-16,23E-diene-26,27-bishomo-20-epi-cholecalciferol], which IC50 [1, 7] is on record?
Its IC50 is 12 µM.

And the IC50 [4, 9]?
The IC50 was 28 µM.

What about the IC50 [2, 8] of the same compound?
The IC50 was 16 µM.

With N.N.O=C([O-])C1(C(=O)[O-])CCC1.[Pt+2] [carboplatin] as the compound, how does the “Synergism or antagonism … with calcitriol” value [3] read?
The value was “does not result in any additive or synergistic effect”.

With C[C@]12CCC/C(=C\C=C3\CC(O)C[C@H](O)C3)C1CC=C2C1(C/C=C/C(O)(C(F)(F)F)C(F)(F)F)CC1 (stereo partly drawn) [1α,25-hydroxy-16-ene-20-cyclopropyl-23,24-E-ene-26,27-hexafluoro-19-nor-cholecalciferol] as the compound, how does the IC50 [1, 7] read?
Its IC50 is 14.5 µM.

And the IC50 [2, 8]?
The IC50 was 4.6 µM.

Which results are given for C=C1/C(=C\C=C2/CCC[C@]3(C)C([C@H](C)CCCC(C)(C)O)CC[C@@H]23)C[C@@H](O)C[C@@H]1O (stereo partly drawn) [1,25-Dihydroxycholecalciferol]?
IC50 ([1]; 96-h culture): 28.7 µM; IC50 [1, 7]: 19 µM; Area (230 nm) [5, 10]: 2068192 and 1960823; Area (254 nm) [5, 10]: 2710511 and 2589663; Area (230 nm) [5, 11]: 2027619 and 1954501; Area (254 nm) [5, 11]: 2674857 and 2572268; Area (230 nm) [5, 12]: 3402919 and 3485146; Area (254 nm) [5, 12]: 4981173 and 5116113; Expression of 24-hydroxylase (CYP24) [6]: up-regulation of CYP24; IC50 ([2]; 96-h culture): 26 µM; IC50 [2, 8]: 45 µM

Which “Synergism or antagonism … with calcitriol” value [3] does the source give for N.N.[Cl][Pt][Cl] [cisplatin] here?
Its value is “does not result in any additive or synergistic effect”.

With C=C1/C(=C\C=C2/CCC[C@@]3(C)C2CCC3[C@@H](CCCC(C)(C)O)CCC(O)C(C)(C)O)C[C@@H](O)C[C@@H]1O (stereo partly drawn) [1,25-Dihydroxy-21(2R,3-dihydroxy-3-methyl-butyl)-20S-Cholecalciferol] as the compound, how does the IC50 [1, 7] read?
Its IC50 is 1 µM.

What about the IC50 [4, 9] of the same compound?
Its IC50 is 69.4 µM.

What about the IC50 [2, 8] of the same compound?
Its IC50 is 62 µM.

Which results are given for C=C1/C(=C\C=C2/CCC[C@]3(C)[C@@H]([C@@H](CCCC(C)(C)O)CCC(=O)C(C)(C)O)CC[C@@H]23)C[C@@H](O)C[C@@H]1O [1,25-dihydroxy-20S-21(3-hydroxy-3-methyl-butyl)-24-keto-cholecalciferol]?
IC50 [1, 7]: 25.5 µM; IC50 [2, 8]: 8.3 µM

Which “Synergism or antagonism … with calcitriol” value [3] does the source give for COc1cccc2c1C(=O)c1c(O)c3c(c(O)c1C2=O)C[C@@](O)(C(=O)CO)C[C@@H]3O[C@H]1C[C@H](N)[C@H](O)[C@H](C)O1 [doxorubicin] here?
The value was “strong synergistic effect”.
